# Where two headings read alike, the source gives them in different places.
# Assays:
# MDAMB231 = assay: tumor cell growth, MDAMB231; conditions: read-out: IC50 (uM), MDAMB231 (Breast C); Table 6
# NCIH460 = assay: Thymidine (Thy) 96 well, NCIH460; conditions: read-out: IC50 (uM), NCIH460 (NSCLC)
# GL261 = assay: tumor cell growth, GL261; conditions: read-out: IC50 (uM), GL261 (CNS); Table 6
# HEPG2 = assay: tumor cell growth, HEPG2; conditions: read-out: IC50 (uM), HEPG2 (Liver C); Table 6
# LN-229 = assay: tumor cell growth (CTG), LN-229 / LN229
# HCT116 [1] = assay: tumor cell growth (CTG), HCT116
# A549 = assay: tumor cell growth, A549; conditions: read-out: IC50 (uM), A549 (NSCLC); Table 6
# U251 = assay: tumor cell growth, U251; conditions: read-out: IC50 (uM), U251 (CNS); Table 6
# HEP3B [2] = assay: [3H]-Thymidine incorporation in 96-well plates (Thy), HEP3B; conditions: read-out: IC50 (uM), HEP3B (Liver Cancer)
# PC3 [3] = assay: tumor cell growth (CTG), PC3
# HEP3B [4] = assay: tumor cell growth (CTG), HEP3B
# LN-18 = assay: tumor cell growth, LN-18; conditions: read-out: IC50 (uM), LN-18 (CNS); Table 6
# H460 = assay: tumor cell growth (CTG), H460 / NCIH460
# LN229 = assay: [3H]-Thymidine incorporation in 96-well plates (Thy), LN229; conditions: read-out: IC50 (uM), LN229 (CNS Cancer)
# HCT116 [5] = assay: Thymidine (Thy) 96 well, HCT116; conditions: read-out: IC50 (uM), HCT116 (Colon Cancer)
# PC3 [6] = assay: [3H]-Thymidine incorporation in 96-well plates (Thy), PC3; conditions: read-out: IC50 (uM), PC3 (Prostrate Cancer)
# U87 = assay: tumor cell growth, U87; conditions: read-out: IC50 (uM), U87 (CNS); Table 6
# HT29 [7] = assay: Thymidine (Thy) 96 well, HT29; conditions: read-out: IC50 (uM), HT29 (Colon Cancer)
# U118 = assay: tumor cell growth, U118; conditions: read-out: IC50 (uM), U118 (CNS); Table 6
# PANC-1 = assay: tumor cell growth, PANC-1; conditions: read-out: IC50 (uM), PANC-1 (Pancreatic C); Table 6
# HT29 [8] = assay: tumor cell growth (CTG), HT29
# A172 = assay: tumor cell growth, A172; conditions: read-out: IC50 (uM), A172 (CNS); Table 6
# MCF7 = assay: tumor cell growth, MCF7; conditions: read-out: IC50 (uM), MCF7 (Breast C); Table 6
# Du-145 = assay: tumor cell growth, Du-145; conditions: read-out: IC50 (uM), Du-145 (Prostate C); Table 6
compound,measurement,setting,value
"COc1ccc(C[C@@H](C)NC[C@H](O)c2cc(O)cc(O)c2)c2ccccc12 [(R,R′)-MNF, (R,R′)-4′-methoxy-1-naphthylfenoterol]",IC50,MDAMB231,33.2 µM
same,IC50,NCIH460; 96 well Thy 2 days treatment,21 µM
same,IC50,NCIH460; 96 well Tye 1 day treatment,25.1 µM
same,IC50,GL261,21.3 µM
same,IC50,HEPG2,28.8 µM
same,IC50,"LN-229; read-out: IC50 (uM), LN229 (CNS Cancer), 96 well CTG 1 day treatment",29.3 µM
same,IC50,"LN-229; read-out: IC50 (uM), LN229 (CNS Cancer), 96 well CTG 2 days treatment",15.7 µM
same,IC50,"LN-229; read-out: IC50 (uM), LN229 (CNS Cancer), 384well CTG 3 days treatment −1",26.8 µM
same,IC50,"LN-229; read-out: IC50 (uM), LN-229 (CNS), Table 6",26.8 µM
same,IC50,"HCT116 [1]; read-out: IC50 (uM), HCT116 (Colon C), Table 6",12.9 µM
same,IC50,"HCT116 [1]; read-out: IC50 (uM), HCT116 (Colon Cancer), 96 well CTG 1 day treatment",19 µM
same,IC50,"HCT116 [1]; read-out: IC50 (uM), HCT116 (Colon Cancer), 96 well CTG 2 days treatment",10.5 µM
same,IC50,"HCT116 [1]; read-out: IC50 (uM), HCT116 (Colon Cancer), 384well CTG 3 days treatment −1",12.9 µM
same,IC50,"HCT116 [1]; read-out: IC50 (uM), HCT116 (Colon Cancer), 384well CTG 3 days treatment −2",12.2 µM
same,IC50,A549,23.1 µM
same,IC50,U251,26.7 µM
same,IC50,HEP3B [2]; 96 well Thy 2 days treatment,10 µM
same,IC50,HEP3B [2]; 96 well Tye 1 day treatment,10.7 µM
same,IC50,"PC3 [3]; read-out: IC50 (uM), PC3 (Prostate C), Table 6",28.1 µM
same,IC50,"PC3 [3]; read-out: IC50 (uM), PC3 (Prostrate Cancer), 96 well CTG 1 day treatment",34.5 µM
same,IC50,"PC3 [3]; read-out: IC50 (uM), PC3 (Prostrate Cancer), 96 well CTG 2 days treatment",20.4 µM
same,IC50,"PC3 [3]; read-out: IC50 (uM), PC3 (Prostrate Cancer), 384well CTG 3 days treatment −1",28.1 µM
same,IC50,"HEP3B [4]; read-out: IC50 (uM), HEP3B (Liver C), Table 6",14.7 µM
same,IC50,"HEP3B [4]; read-out: IC50 (uM), HEP3B (Liver Cancer), 96 well CTG 1 day treatment",28.3 µM
same,IC50,"HEP3B [4]; read-out: IC50 (uM), HEP3B (Liver Cancer), 96 well CTG 2 days treatment",13.5 µM
same,IC50,"HEP3B [4]; read-out: IC50 (uM), HEP3B (Liver Cancer), 384well CTG 3 days treatment −1",14.7 µM
same,IC50,"HEP3B [4]; read-out: IC50 (uM), HEP3B (Liver Cancer), 384well CTG 3 days treatment −2",12.1 µM
same,IC50,LN-18,29.7 µM
same,IC50,"H460; read-out: IC50 (uM), H460 (NSCLC), Table 6",11.6 µM
same,IC50,"H460; read-out: IC50 (uM), NCIH460 (NSCLC), 96 well CTG 1 day treatment",38.9 µM
same,IC50,"H460; read-out: IC50 (uM), NCIH460 (NSCLC), 96 well CTG 2 days treatment",15.4 µM
same,IC50,"H460; read-out: IC50 (uM), NCIH460 (NSCLC), 384well CTG 3 days treatment −1",11.6 µM
same,IC50,"H460; read-out: IC50 (uM), NCIH460 (NSCLC), 384well CTG 3 days treatment −2",17.7 µM
same,IC50,LN229; 96 well Thy 2 days treatment,10.4 µM
same,IC50,LN229; 96 well Tye 1 day treatment,9.64 µM
same,IC50,HCT116 [5]; 96 well Thy 2 days treatment,11 µM
same,IC50,HCT116 [5]; 96 well Tye 1 day treatment,23.8 µM
same,IC50,PC3 [6]; 96 well Thy 2 days treatment,10.8 µM
same,IC50,PC3 [6]; 96 well Tye 1 day treatment,11 µM
same,IC50,U87,25.7 µM
same,IC50,HT29 [7]; 96 well Thy 2 days treatment,19.6 µM
same,IC50,HT29 [7]; 96 well Tye 1 day treatment,13 µM
same,IC50,U118,37 µM
same,IC50,PANC-1,33.4 µM
same,IC50,"HT29 [8]; read-out: IC50 (uM), HT29 (Colon C), Table 6",10.7 µM
same,IC50,"HT29 [8]; read-out: IC50 (uM), HT29 (Colon Cancer), 96 well CTG 1 day treatment",30.4 µM
same,IC50,"HT29 [8]; read-out: IC50 (uM), HT29 (Colon Cancer), 96 well CTG 2 days treatment",11.7 µM
same,IC50,"HT29 [8]; read-out: IC50 (uM), HT29 (Colon Cancer), 384well CTG 3 days treatment −1",10.7 µM
same,IC50,A172,30.5 µM
same,IC50,MCF7,37.2 µM
same,IC50,Du-145,34.8 µM

# From patent publication US11389415B2, “Methods of regulating cannabinoid receptor activity-related disorders and diseases” (The United States of America as represented by the …, priority 2012, dated 2022)
